Laboratory results as given in patent publication US8030043B2, “β-galactoside-α2,3-sialyltransferase, a gene encoding thereof, and a method for producing thereof” (Japan Tobacco Inc., priority 2005, dated 2011).

Key:
[1] = tested on: α2,3-sialyltransferase derived from strain JT-ISH-467; assay: Sialic acid transfer to monosaccharides and disaccharides by partially purified α2,3-sialyltransferase (CMP-14C-NeuAc donor, radioactivity of column eluate); format: biochemical, Photobacterium phosphoreum; conditions: 25° C., 4 hours; acceptor 10 μmol (200 mM); CMP-14C-NeuAc 400 nmol; sialyltransferase 0.13 mU; NaCl 500 mM
Procedure: A cell homogenate prepared from the strain JT-ISH-467 was partially purified by ion exchange chromatography, hydroxyapatite chromatography, and gel filtration chromatography. The thus partially purified α2,3-sialyltransferase was used in the following experiment in order to confirm the transfer of sialic acid to various monosaccharides and disaccharides.
The enzymatic reaction was carried out at 25° C. for 4 hours in a reaction solution (24 μl) prepared to contain CMP-^14C-NeuAc as a glycosyl donor substrate (400 nmol (15600 cpm), final concentration in the reaction solution: 16.6 mM), any of various glycosyl acceptor substrates (10 μmol, final concentration in the reaction solution: 200 mM), sialyltransferase (0.13 mU) and NaCl (final concentration in the reaction solution: 500 mM). The monosaccharides and disaccharides used as glycosyl acceptor substrates were the following 6 substances: methyl-α-D-galactopyranoside (Gal-α-OMe), methyl-β-D-galactopyranoside (Gal-β-OMe), N-acetylgalactosamine (GalNAc), lactose (Gal-β1,4-Glc), N-acetyllactosamine (Gal-β1,4-GlcNAc), and methyl-β-D-galactopyranosyl-β-1,3-N-acetylglucosaminide (Gal-β1,3-GlcNAc-β-OMe).
(§1) After completion of the enzymatic reaction, 1.98 ml of 5 mM phosphate buffer (pH 6.8) was added to the reaction solution to stop the enzymatic reaction. Then, the enzymatic reaction solution was diluted with 5 mM phosphate buffer (pH 6.8) and applied in a volume of 2 ml to a AG1-×2 Resin (PO4^3− form, 0.2×2 cm) column. This column was prepared as follows: AG1-×2 Resin (OH^− form, BIO-RAD) was suspended in 1 M phosphate buffer (pH 6.8), and after 30 minutes, the resin was washed with distilled water and then suspended in distilled water. The eluate (0 to 2 ml) from this column was measured for its radioactivity. The eluate from this column contains the unreacted glycosyl acceptor substrate and the ^14C-NeuAc (N-acetylneuraminic acid)-bound reaction product which was generated by the reaction, but unreacted CMP-^14C-NeuAc is still retained on the column. Thus, the radioactivity of ^14C from each sialic acid-containing sugar chain generated as a result of the enzymatic reaction arises exclusively from the reaction product, so that the radioactivity of this fraction can be used to calculate the enzyme activity.
(§2) In the manner described above, the radioactivity of NeuAc transferred to each glycosyl acceptor substrate was measured to calculate the amount of transferred sialic acid.

[2] = tested on: ISH467-N2C0 recombinant β-galactoside-α2,3-sialyltransferase; assay: Acceptor substrate specificity of recombinant β-galactoside-α2,3-sialyltransferase (mono-, di-, trisaccharides); format: biochemical, Photobacterium phosphoreum
From the text: (§3) Cell homogenates prepared from E. coli cells introduced with the third clone of ISH467-N2C0, the first clone of ISH224-N1C0 and the first clone of FAJ-N1C0 were each purified by ion exchange chromatography and hydroxyapatite chromatography to give an electrophoretically single band. The thus purified β-galactoside-α2,3-sialyltransferases were used in the following experiment in order to examine the presence or absence of sialyltransferase activity toward various monosaccharides, disaccharides and trisaccharides.
(§4) A reaction solution (24 μl) was prepared to contain CMP-^14C-NeuAc-containing CMP-NeuAc as a glycosyl donor substrate ([…], final concentration in the reaction solution: […]), any of various glycosyl acceptor substrates dissolved in 20 mM cacodylate buffer (pH 5.0) (1 μmol, final concentration in the reaction solution: 42 mM), sialyltransferase (in an amount as indicated in the footnotes of the tables below) and NaCl (final concentration in the reaction solution: 500 mM), and reacted under conditions as indicated in the footnotes of the tables below. The monosaccharides used as glycosyl acceptor substrates were the following 10 types: methyl-α-D-galactopyranoside (Gal-α-OMe), methyl-(β-D-galactopyranoside (Gal-β-OMe), methyl-α-D-glucopyranoside (Glc-α-OMe), methyl-β-D-glucopyranoside (Glc-β-OMe), methyl-α-D-mannopyranoside (Man-α-OMe), methyl-β-D-mannopyranoside (Man-β-OMe), methyl-α-D-fucopyranoside (Fuc-α-OMe), methyl-β-D-fucopyranoside (Fuc-β-OMe), N-acetylgalactosamine (GalNAc), and N-acetylglucosamine ([…]). The disaccharides used were the following 5 types: lactose (Gal-β1,4-Glc), N-acetyllactosamine (Gal-β1,4-GlcNAc), methyl-β-D-galactopyranosyl-β1,3-N-acetylglucosaminide (Gal-β1,3-GlcNAc-β-OMe), methyl-α-D-galactopyranosyl-α1,3-galactopyranoside (Gal-α-1,3-Gal-α-OMe), and methyl-β-D-galactopyranosyl-β1,3-galactopyranoside (Gal-β1,3-Gal-β-OMe). The trisaccharide used was 2′-fucosyllactose (Fuc-α1,2-Galβ1,4-Glc). It should be noted that the final concentration was set to 8.4 mM for the sugar chains shown in Table 18, i.e., methyl-α-D-galactopyranosyl-α1,3-galactopyranoside (Gal-α1,3-Gal-α-OMe), methyl-β-D-galactopyranosyl-β1,3-galactopyranoside (Gal-β1,3-Gal-β-OMe) and 2′-fucosyllactose (Fuc-α1,2-Gal-β1,4-Glc).
as §1, with “a AG1−×2” for “a AG1-×2”, “follows: AG1-x 2” for “follows: AG1-×2”, “unreacted CMP-14C-NeuAc” for “unreacted CMP-^14C-NeuAc”
as §2

[3] = tested on: ISH224-N1C0 recombinant β-galactoside-α2,3-sialyltransferase; assay: as above; format: biochemical, Photobacterium sp.
From the text: as §3, §4
as §1, with “a AG1−×2” for “a AG1-×2”, “follows: AG1-x 2” for “follows: AG1-×2”, “unreacted CMP-14C-NeuAc” for “unreacted CMP-^14C-NeuAc”
as §2

[4] = tested on: FAJ-N1C0 recombinant β-galactoside-α2,3-sialyltransferase; assay: Acceptor substrate specificity of recombinant β-galactoside-α2,3-sialyltransferase (mono-, disaccharides); format: biochemical, Vibrio sp.; set-up: FAJ-N1C0 Sialyltransferase activity Relative activity (%): tested at 42 mM; conditions: 20° C., 14 hours; for FAJ-N1C0 Sialyltransferase activity: Table 16: 1 μmol acceptor, pH 5.0, about 2.5 mU enzyme; for FAJ-N1C0 Sialyltransferase activity Relative activity (%): Table 16: activity toward lactose set to 100
From the text: as §3, §4
as §1, with “a AG1−×2” for “a AG1-×2”, “follows: AG1-x 2” for “follows: AG1-×2”, “unreacted CMP-14C-NeuAc” for “unreacted CMP-^14C-NeuAc”
as §2

[5] = Table 16: 1 μmol acceptor, pH 5.0, about 2.5 mU enzyme, 20° C., 14 hours
[6] = Table 16: activity toward lactose set to 100, 20° C., 14 hours
[7] = Table 17: 1 μmol acceptor, pH 5.0, 2.3 mU per reaction, 30° C., 0.5 minutes or 2 minutes
[8] = Table 17: activity toward lactose set to 100, 30° C., 0.5 minutes or 2 minutes
[9] = Table 17: 1 μmol acceptor, pH 5.0, 1.0 mU per reaction, 30° C., 0.5 minutes or 2 minutes
[10] = Table 18: 0.2 μmol acceptor (8.4 mM), pH 5.0, 23 mU per reaction, 30° C., 2 minutes
[11] = Table 18: activity toward lactose set to 100, 0.2 μmol acceptor, 30° C., 2 minutes
[12] = Table 18: 0.2 μmol acceptor (8.4 mM), pH 5.0, 1.0 mU per reaction, 30° C., 2 minutes

SMILES: CC(=O)N[C@H]1C(O)O[C@H](CO)[C@H](O)[C@@H]1O (some centres unmarked) [N-Acetylgalactosamine, N-acetylgalactosamine]
- Amount of transferred sialic acid [1]: 37.8 nmol
- ISH467-N2C0 Sialyltransferase activity [2, 5]: 5.4 nmol/min
- ISH467-N2C0 Sialyltransferase activity Relative activity (%) [2, 6]: 69%
- ISH467-N2C0 Sialyltransferase activity [2, 7]: 0.99 nmol/min
- ISH467-N2C0 Sialyltransferase activity Relative activity (%) [2, 8]: 43%
- ISH224-N1C0 Sialyltransferase activity [3, 5]: 5.8 nmol/min
- ISH224-N1C0 Sialyltransferase activity Relative activity (%) [3, 6]: 69%
- ISH224-N1C0 Sialyltransferase activity [3, 9]: 0.78 nmol/min
- ISH224-N1C0 Sialyltransferase activity Relative activity (%) [3, 8]: 76%
- FAJ-N1C0 Sialyltransferase activity [4]: 4.4 nmol/min
- FAJ-N1C0 Sialyltransferase activity Relative activity (%) [4]: 58%

SMILES: CO[C@H]1O[C@H](C)[C@H](O)[C@H](O)[C@H]1O [Methylαfucopyranoside, methyl-α-D-fucopyranoside]
- ISH467-N2C0 Sialyltransferase activity [2, 7]: 1.13 nmol/min
- ISH467-N2C0 Sialyltransferase activity Relative activity (%) [2, 8]: 49%
- ISH224-N1C0 Sialyltransferase activity [3, 9]: 0.70 nmol/min
- ISH224-N1C0 Sialyltransferase activity Relative activity (%) [3, 8]: 68%

SMILES: CO[C@H]1O[C@H](CO)[C@@H](O)[C@H](O)[C@H]1O [Methylαglucopyranoside, methyl-α-D-glucopyranoside]
- ISH467-N2C0 Sialyltransferase activity [2, 5]: 6.2 nmol/min
- ISH467-N2C0 Sialyltransferase activity Relative activity (%) [2, 6]: 79%
- ISH467-N2C0 Sialyltransferase activity [2, 7]: 1.11 nmol/min
- ISH467-N2C0 Sialyltransferase activity Relative activity (%) [2, 8]: 48%
- ISH224-N1C0 Sialyltransferase activity [3, 5]: 4.3 nmol/min
- ISH224-N1C0 Sialyltransferase activity Relative activity (%) [3, 6]: 51%
- ISH224-N1C0 Sialyltransferase activity [3, 9]: 0.70 nmol/min
- ISH224-N1C0 Sialyltransferase activity Relative activity (%) [3, 8]: 68%
- FAJ-N1C0 Sialyltransferase activity [4]: 4.7 nmol/min
- FAJ-N1C0 Sialyltransferase activity Relative activity (%) [4]: 62%

SMILES: CO[C@@H]1O[C@H](CO)[C@@H](O)[C@H](O)[C@H]1O [Methylβglucopyranoside, methyl-β-D-glucopyranoside]
- ISH467-N2C0 Sialyltransferase activity [2, 5]: 3.6 nmol/min
- ISH467-N2C0 Sialyltransferase activity Relative activity (%) [2, 6]: 46%
- ISH467-N2C0 Sialyltransferase activity [2, 7]: 0.76 nmol/min
- ISH467-N2C0 Sialyltransferase activity Relative activity (%) [2, 8]: 33%
- ISH224-N1C0 Sialyltransferase activity [3, 5]: 3.7 nmol/min
- ISH224-N1C0 Sialyltransferase activity Relative activity (%) [3, 6]: 43%
- ISH224-N1C0 Sialyltransferase activity [3, 9]: 0.27 nmol/min
- ISH224-N1C0 Sialyltransferase activity Relative activity (%) [3, 8]: 26%
- FAJ-N1C0 Sialyltransferase activity [4]: 4.0 nmol/min
- FAJ-N1C0 Sialyltransferase activity Relative activity (%) [4]: 52%

SMILES: CO[C@H]1O[C@H](CO)[C@H](O)[C@H](O[C@H]2O[C@H](CO)[C@H](O)[C@H](O)[C@H]2O)[C@H]1O [methyl-α-D-galactopyranosyl-α1,3-galactopyranoside]
- ISH467-N2C0 Sialyltransferase activity [2, 10]: 7.17 nmol/min
- ISH467-N2C0 Sialyltransferase activity Relative activity (%) [2, 11]: 308%
- ISH224-N1C0 Sialyltransferase activity [3, 12]: 8.80 nmol/min
- ISH224-N1C0 Sialyltransferase activity Relative activity (%) [3, 11]: 528%

SMILES: CO[C@@H]1O[C@H](CO)[C@@H](O)[C@H](O)[C@@H]1O [Methylβmannopyranoside, methyl-β-D-mannopyranoside]
- ISH467-N2C0 Sialyltransferase activity [2, 7]: 1.45 nmol/min
- ISH467-N2C0 Sialyltransferase activity Relative activity (%) [2, 8]: 63%
- ISH224-N1C0 Sialyltransferase activity [3, 9]: 1.03 nmol/min
- ISH224-N1C0 Sialyltransferase activity Relative activity (%) [3, 8]: 100%

SMILES: CO[C@@H]1O[C@H](CO)[C@H](O)[C@H](O[C@@H]2O[C@H](CO)[C@H](O)[C@H](O)[C@H]2O)[C@H]1O [methyl-β-D-galactopyranosyl-β1,3-galactopyranoside]
- ISH467-N2C0 Sialyltransferase activity [2, 10]: 5.17 nmol/min
- ISH467-N2C0 Sialyltransferase activity Relative activity (%) [2, 11]: 222%
- ISH224-N1C0 Sialyltransferase activity [3, 12]: 5.52 nmol/min
- ISH224-N1C0 Sialyltransferase activity Relative activity (%) [3, 11]: 331%

SMILES: CO[C@H]1O[C@H](CO)[C@@H](O)[C@H](O)[C@@H]1O [Methylαmannopyranoside, methyl-α-D-mannopyranoside]
- ISH467-N2C0 Sialyltransferase activity [2, 5]: 5.5 nmol/min
- ISH467-N2C0 Sialyltransferase activity Relative activity (%) [2, 6]: 71%
- ISH467-N2C0 Sialyltransferase activity [2, 7]: 1.38 nmol/min
- ISH467-N2C0 Sialyltransferase activity Relative activity (%) [2, 8]: 60%
- ISH224-N1C0 Sialyltransferase activity [3, 5]: 4.7 nmol/min
- ISH224-N1C0 Sialyltransferase activity Relative activity (%) [3, 6]: 56%
- ISH224-N1C0 Sialyltransferase activity [3, 9]: 1.11 nmol/min
- ISH224-N1C0 Sialyltransferase activity Relative activity (%) [3, 8]: 108%
- FAJ-N1C0 Sialyltransferase activity [4]: 4.3 nmol/min
- FAJ-N1C0 Sialyltransferase activity Relative activity (%) [4]: 57%

SMILES: CC(=O)N[C@H]1C(O)O[C@H](CO)[C@@H](O)[C@@H]1O (some centres unmarked) [N-Acetylglucosamine, N-acetylglucosamine]
- ISH467-N2C0 Sialyltransferase activity [2, 5]: 5.0 nmol/min
- ISH467-N2C0 Sialyltransferase activity Relative activity (%) [2, 6]: 63%
- ISH467-N2C0 Sialyltransferase activity [2, 7]: 0.91 nmol/min
- ISH467-N2C0 Sialyltransferase activity Relative activity (%) [2, 8]: 40%
- ISH224-N1C0 Sialyltransferase activity [3, 5]: 5.7 nmol/min
- ISH224-N1C0 Sialyltransferase activity Relative activity (%) [3, 6]: 68%
- ISH224-N1C0 Sialyltransferase activity [3, 9]: 0.51 nmol/min
- ISH224-N1C0 Sialyltransferase activity Relative activity (%) [3, 8]: 50%
- FAJ-N1C0 Sialyltransferase activity [4]: 4.2 nmol/min
- FAJ-N1C0 Sialyltransferase activity Relative activity (%) [4]: 55%

SMILES: CO[C@@H]1O[C@H](C)[C@H](O)[C@H](O)[C@H]1O [Methylβfucopyranoside, methyl-β-D-fucopyranoside]
- ISH467-N2C0 Sialyltransferase activity [2, 7]: 0.97 nmol/min
- ISH467-N2C0 Sialyltransferase activity Relative activity (%) [2, 8]: 42%
- ISH224-N1C0 Sialyltransferase activity [3, 9]: 0.50 nmol/min
- ISH224-N1C0 Sialyltransferase activity Relative activity (%) [3, 8]: 48%
